Experimental findings from publication PMC8306964 (2021) are described below.

For test [1], the system named is p(dAdT) (DNA, polymer) AT. In words: fluorescence titration, Scatchard (McGhee-von Hippel) fit. Conditions: Na+ (sodium cacodylate, 50 mM); pH 7.0, 25 °C, <1% DMSO; n fixed 0.3; polynucleotide as phosphates; error half log unit; per base.
In test [2] the test system is dA10-dT10 (DNA, duplex) AAAAAAAAAA/TTTTTTTTTT
In words: HPLC retention shift. The following applies: NH4+ (ammonium acetate, 100 mM); pH 7.0; signal about 0.5 min earlier with compound.

The test system of test [3] is dG12-dC12 (DNA, duplex) GGGGGGGGGGGG/CCCCCCCCCCCC
Nature of the test: HPLC retention shift. The following applies: NH4+ (ammonium acetate, 100 mM); pH 7.0; retention retarded by about 0.3 min with compound; no alkylation on irradiation.

The test system of test [4] is p(dGdC) (DNA, polymer) GC. In words: fluorescence titration, Scatchard (McGhee-von Hippel) fit. The following applies: Na+ (sodium cacodylate, 50 mM); pH 7.0, 25 °C, <1% DMSO; n fixed 0.3; polynucleotide as phosphates; error half log unit; per base.
In a further test the test system is pApU (RNA, polymer) A/U. The test is described as above. The following applies: Na+ (sodium cacodylate, 50 mM); pH 7.0, 25 °C, <1% DMSO; n fixed 0.3; polynucleotide as phosphates; error half log unit; per base.
The subject of test [5] is dA10-dT10 (DNA, duplex) AAAAAAAAAA/TTTTTTTTTT
In words: photoalkylation (300 nm irradiation), HPLC. Conditions: NH4+ (ammonium acetate, 100 mM); covalent; pH 7.0; 15 or 60 min; new broad signal at about 16.5 min.

Peptide text beside a SMILES is read from it. * marks the point of attachment. OBn = c1ccc(CO*)cc1

`CN(C)Cc1cc(C[C@H](NC(=O)[C@H](Cc2c[nH]c3ccccc23)NC(=O)[C@@H](N)Cc2c[nH]c3ccccc23)C(=O)OCc2ccccc2)ccc1O`: the “log Ka” value in test [1] is listed as 5.9 log (M^-1); in test [4], 6.4 log (M^-1); in the test with pApU (RNA, polymer) A/U, 6.0 log (M^-1). Moreover, the binding result in test [2], in test [3] and in test [5] was “yes” throughout.
`N[C@@H](Cc1c[nH]c2ccccc12)C(=O)N[C@@H](Cc1c[nH]c2ccccc12)C(=O)N[C@@H](Cc1ccc(O)cc1)C(=O)OCc1ccccc1` (H-Trp-Trp-Tyr-OBn): the “log Ka” value in test [4] is on record as 6.5 log (M^-1).
